Counter-ions that a name gives are not always drawn. Like-named read-outs stand apart in the source and are kept apart here.
Columns and labels:
[1] = pH of aqueous solutions of the salts; conditions: for pH: aqueous solution, concentration approximately 10^-3 M
[2] = Solubility in buffers at pH 1.0, 1.2, 4.5, 6.8 and 7.5; assay type: physicochemical; conditions: for Solubility pH = 1.0 (class) / Solubility pH = 1.0 (volume of solvent required for dissolution per gram of solute): buffer pH 1.0, KCl 0.2 M / HCl 0.2 M; for Solubility pH = 1.2 (class) / Solubility pH = 1.2 (volume of solvent required for dissolution per gram of solute): buffer pH 1.2, KCl 0.2 M / HCl 0.2 M; for Solubility pH = 4.5 (class) / Solubility pH = 4.5 (volume of solvent required for dissolution per gram of solute): buffer pH 4.5, potassium biphthalate 0.2 M / HCl 0.2 M; for Solubility pH = 6.8 (class) / Solubility pH = 6.8 (volume of solvent required for dissolution per gram of solute): buffer pH 6.8, monobasic potassium phosphate 0.2 M / NaOH 0.2 M; for Solubility pH = 7.5 (class) / Solubility pH = 7.5 (volume of solvent required for dissolution per gram of solute): buffer pH 7.5, monobasic potassium phosphate 0.2 M / NaOH 0.2 M
Experimental: The buffers at pH 1.0 and 1.2 were prepared with aqueous solutions of potassium chloride 0.2M and hydrochloric acid 0.2 M, the buffers at pH 6.8 and 7.5 were prepared with aqueous solutions of monobasic potassium phosphate 0.2 M and sodium hydroxide 0.2 M and the buffer at pH 4.5 with aqueous solutions of potassium biphthalate 0.2 M and hydrochloric acid 0.2 M, according to pharmacopoeia USP31.
The statement freely soluble means that the volume of solvent (required for dissolution) in ml per gram of solute is of from 1 to 10. The statement soluble means that the volume of solvent (required for dissolution) in ml per gram of solute is of from […]. The statement sparingly soluble means that the volume of solvent (required for dissolution) in ml per gram of solute is of from 30 to 100. The statement slightly soluble means that the volume of solvent (required for dissolution) in ml per gram of solute is of from 100 to 1000. The statement very slightly soluble means that the volume of solvent (required for dissolution) in ml per gram of solute is from 1000 to 10 000.

[3] = Color classification according to the Munsell color system; assay type: physicochemical; conditions: for Munsell Classification: Munsell color system
From the text: The table below presents the color classification of the doxycycline salts according to the Munsell color system.

[4] = background statement on the acidic salt; cited from earlier work

Compound	pH [1]	Solubility pH = 1.0 (volume of solvent required for dissolution per gram of solute) [2] [ml/g]	Solubility pH = 1.2 (volume of solvent required for dissolution per gram of solute) [2] [ml/g]	Solubility pH = 4.5 (volume of solvent required for dissolution per gram of solute) [2] [ml/g]	Solubility pH = 6.8 (volume of solvent required for dissolution per gram of solute) [2] [ml/g]	Solubility pH = 7.5 (volume of solvent required for dissolution per gram of solute) [2] [ml/g]	Color Description [3]	Munsell Classification [3]	Munsell Classification ([3]; listed as doxycycline hyclate)	Solubility pH = 1.0 (class) [2]	Solubility pH = 1.2 (class) [2]	Solubility pH = 4.5 (class) [2]	Solubility pH = 6.8 (class) [2]	Solubility pH = 7.5 (class) [2]	Solubility compared with doxycycline monohydrate ([2]; pH 4.5, pH 6.8 and pH 7.5)	pH [4]	pH compared with the marketed form ([1]; comparison of the values of the pH table)	Solubility compared with the hydrochloride / hyclate ([2]; pH 1.0, 1.2, 4.5, 6.8 and 7.5 (all pH values tested))	Solubility compared with doxycycline monohydrate ([2]; pH 1.0 and pH 1.2)
CN(C)[C@@H]1C(O)=C(C(N)=O)C(=O)[C@@]2(O)C(O)=C3C(=O)c4c(O)cccc4[C@@](C)(O)[C@H]3C[C@@H]12 [Tetracycline]	–	–	–	–	–	–	Yellowish	5Y/9/4 NN	–	–	–	–	–	–	–	–	–	–	–
Minocycline Oxalate	3.0	–	–	–	–	–	Yellowish	10/Y/9/3.5 NN	–	–	–	–	–	–	–	–	–	–	–
C[C@H]1c2cccc(O)c2C(=O)C2=C(O)[C@]3(O)C(=O)C(C(N)=O)=C(O)[C@@H](N(C)C)[C@@H]3[C@@H](O)[C@@H]21 [doxycycline hydrochloride]	–	–	–	–	–	–	–	–	–	–	–	–	–	–	–	about 3	–	–	–
CN(C)C1C(O)=C(C(N)=O)C(=O)C2(O)C(O)=C3C(=O)c4c(O)cccc4C(C)(O)C3CC12.O=C(O)C(=O)O (stereo not shown) [Tetracycline Oxalate]	3.2	–	–	–	–	–	Yellowish	10Y/9/8 NN	–	–	–	–	–	–	–	–	less acidic than the pH of tetracycline	–	–
C[C@H]1c2cccc(O)c2C(=O)C2=C(O)[C@]3(O)C(=O)C(C(N)=O)=C(O)[C@@H](N(C)C)[C@@H]3[C@@H](O)[C@@H]21 [Doxycycline Monohydrate, reference compound]	–	19	25	1000	333	1000	Yellowish	10Y/9/3.5 NN	–	Soluble (The statement soluble means that the volume of solvent (required for dissolution) in ml per gram of solute is of from 1 to 30)	Soluble (The statement soluble means that the volume of solvent (required for dissolution) in ml per gram of solute is of from 1 to 30)	Slightly (The statement slightly soluble means that the volume of solvent (required for dissolution) in ml per gram of solute is of from 100 to 1000)	Slightly (The statement slightly soluble means that the volume of solvent (required for dissolution) in ml per gram of solute is of from 100 to 1000)	Slightly (The statement slightly soluble means that the volume of solvent (required for dissolution) in ml per gram of solute is of from 100 to 1000)	–	–	–	–	–
C[C@H]1c2cccc(O)c2C(O)=C2C(=O)[C@]3(O)C(O)=C(C(N)=O)C(=O)[C@@H](N(C)C)[C@@H]3[C@@H](O)[C@@H]21.O=C(O)C(=O)O [Doxycycline Oxalate]	3.2	500	1900	500	125	143	Yellowish	5Y/9/4 NN	–	Slightly (The statement slightly soluble means that the volume of solvent (required for dissolution) in ml per gram of solute is of from 100 to 1000)	Very Slightly (The statement very slightly soluble means that the volume of solvent (required for dissolution) in ml per gram of solute is from 1000 to 10 000)	Slightly (The statement slightly soluble means that the volume of solvent (required for dissolution) in ml per gram of solute is of from 100 to 1000)	Slightly (The statement slightly soluble means that the volume of solvent (required for dissolution) in ml per gram of solute is of from 100 to 1000)	Slightly (The statement slightly soluble means that the volume of solvent (required for dissolution) in ml per gram of solute is of from 100 to 1000)	similar	–	–	lower than that of the hyclate	lower than that of the monohydrate
Demeclocycline Maleate	3.4	–	–	–	–	–	Yellowish	5Y/9/2 NN	–	Soluble (The statement soluble means that the volume of solvent (required for dissolution) in ml per gram of solute is of from 1 to 30)	Soluble (The statement soluble means that the volume of solvent (required for dissolution) in ml per gram of solute is of from 1 to 30)	Sparingly (The statement sparingly soluble means that the volume of solvent (required for dissolution) in ml per gram of solute is of from 30 to 100)	Sparingly (The statement sparingly soluble means that the volume of solvent (required for dissolution) in ml per gram of solute is of from 30 to 100)	Sparingly (The statement sparingly soluble means that the volume of solvent (required for dissolution) in ml per gram of solute is of from 30 to 100)	–	–	–	–	–

Continued, in another order:

pH [1]	Solubility pH = 1.0 (volume of solvent required for dissolution per gram of solute) [2] [ml/g]	Solubility pH = 1.2 (volume of solvent required for dissolution per gram of solute) [2] [ml/g]	Solubility pH = 4.5 (volume of solvent required for dissolution per gram of solute) [2] [ml/g]	Solubility pH = 6.8 (volume of solvent required for dissolution per gram of solute) [2] [ml/g]	Solubility pH = 7.5 (volume of solvent required for dissolution per gram of solute) [2] [ml/g]	Color Description [3]	Munsell Classification [3]	Munsell Classification ([3]; listed as doxycycline hyclate)	Compound	Solubility pH = 1.0 (class) [2]	Solubility pH = 1.2 (class) [2]	Solubility pH = 4.5 (class) [2]	Solubility pH = 6.8 (class) [2]	Solubility pH = 7.5 (class) [2]	Solubility compared with doxycycline monohydrate ([2]; pH 4.5, pH 6.8 and pH 7.5)	pH [4]	pH compared with the marketed form ([1]; comparison of the values of the pH table)	Solubility compared with the hydrochloride / hyclate ([2]; pH 1.0, 1.2, 4.5, 6.8 and 7.5 (all pH values tested))	Solubility compared with doxycycline monohydrate ([2]; pH 1.0 and pH 1.2)
3.3	13	13	63	83	77	Off-white	9.25/10Y/2.5 NN	–	CC1c2cccc(O)c2C(O)=C2C(=O)C3(O)C(O)=C(C(N)=O)C(=O)C(N(C)C)C3C(O)C21.O=C(O)C=CC(=O)O (stereo not shown) [Doxycycline Maleate]	Soluble (The statement soluble means that the volume of solvent (required for dissolution) in ml per gram of solute is of from 1 to 30)	Soluble (The statement soluble means that the volume of solvent (required for dissolution) in ml per gram of solute is of from 1 to 30)	Sparingly (The statement sparingly soluble means that the volume of solvent (required for dissolution) in ml per gram of solute is of from 30 to 100)	Sparingly (The statement sparingly soluble means that the volume of solvent (required for dissolution) in ml per gram of solute is of from 30 to 100)	Sparingly (The statement sparingly soluble means that the volume of solvent (required for dissolution) in ml per gram of solute is of from 30 to 100)	higher than that of the monohydrate	–	–	–	–
–	16	3	53	2	100	Yellowish	10Y 9/3.5 NN	yellowish 10Y	CCO.C[C@H]1c2cccc(O)c2C(=O)C2=C(O)[C@]3(O)C(=O)C(C(N)=O)=C(O)[C@@H](N(C)C)[C@@H]3[C@@H](O)[C@@H]21.C[C@H]1c2cccc(O)c2C(=O)C2=C(O)[C@]3(O)C(=O)C(C(N)=O)=C(O)[C@@H](N(C)C)[C@@H]3[C@@H](O)[C@@H]21.Cl.Cl.O [Doxycycline Hyclate, reference compound]	Soluble (The statement soluble means that the volume of solvent (required for dissolution) in ml per gram of solute is of from 1 to 30)	Freely soluble (The statement freely soluble means that the volume of solvent (required for dissolution) in ml per gram of solute is of from 1 to 10)	Sparingly (The statement sparingly soluble means that the volume of solvent (required for dissolution) in ml per gram of solute is of from 30 to 100)	Freely soluble (The statement freely soluble means that the volume of solvent (required for dissolution) in ml per gram of solute is of from 1 to 10)	Sparingly (The statement sparingly soluble means that the volume of solvent (required for dissolution) in ml per gram of solute is of from 30 to 100)	–	–	–	–	–
6.8	–	–	–	–	–	Yellowish	7.5Y/9/10 NN	–	CN(C)c1ccc(O)c2c1C[C@H]1C[C@H]3[C@H](N(C)C)C(O)=C(C(N)=O)C(=O)[C@@]3(O)C(O)=C1C2=O [Minocycline Base, 7-dimethylamino-6-demethyl-6-deoxytetracycline, reference compound]	–	–	–	–	–	–	–	–	–	–
3.3	–	–	–	–	–	Yellowish	5Y/9/2.5 NN	–	Demeclocycline Oxalate	–	–	–	–	–	–	–	–	–	–

Source: patent US10543298B2, “Salts of tetracyclines” (Hovione Scientia Limited, priority 2015, dated 2020)
